{
  "source": "patent US20110224232A1",
  "about": "(Board of Regents, The University of Texas System, priority 2008, published 2011)",
  "key": {"[1]": {"tested_on": "invasive pulmonary aspergillosis", "settings": "high doses, 40 mg/kg per day; cited from earlier work"}, "[2]": {"settings": "underivatized; cited from earlier work"}, "Aspergillus fumigatus [3]": {"tested_on": "Aspergillus fumigatus", "test": "Pulmonary fungal burden by colony forming units in infected mice", "assay_type": "in vivo", "method": "(§1) Mice were monitored for an additional 5 days following discontinuation of treatment. Animals that appeared moribund prior to the end of the study were euthanized by halothane and death was recorded as occurring the next day. 12 mice were randomly selected from each group and euthanized on Day +8 for fungal burden analysis while any remaining mice were euthanized on Day +12. 2 additional mice were randomly selected from each group and euthanized on Day +8 and Day +12 for histological analysis\nLungs were homogenized in sterile saline (total volume 2 mL) supplemented with gentamicin and chloramphenicol using a tissue homogenizer (Polytron Dispensing and Mixing Technology PT 2100, Kinematica, Cincinnati, Ohio). Serial dilutions were prepared in sterile saline and plated in duplicate onto potato dextrose agar. Following 24 hours of incubation at 37° C., colonies were enumerated and colony forming units (CFU) per gram of lung tissue for each animal were calculated.\n(§2) Statistical analyses were conducted as follows. Survival was plotted by Kaplan-Meier analysis, and differences in median survival and percent survival between prophylaxis groups were analyzed by the log-rank test and chi-square test, respectively, using Prism version 4 software (GraphPad, San Diego, Calif.). Differences in fungal burden endpoints (CFU/g and CE) were assessed for significance by analysis of variance with Tukey's post-test for multiple comparisons. A p-value of ≦0.05 was considered statistically significant for all comparisons."}, "[4]": {"tested_on": "Aspergillus fumigatus clinical isolate 293 (AF 293)", "test": "Survival of A. fumigatus-infected immunosuppressed mice (Kaplan-Meier)", "assay_type": "in vivo", "settings": "A. fumigatus-infected female ICR mice, VOR inhalation BID 30-40 mg/kg, AmB intraperitoneal QD 1 mg/kg", "source_text": "Conidia were harvested from Aspergillus fumigatus clinical isolate 293 (AF 293) cultures grown on potato dextrose agar (Hardy Diagnostics, Santa Maria, Calif.) by washing and scraping agar surfaces with 0.1% Tween 80 in sterile physiological saline and filtering through sterile glass wool. Conidia were re-suspended to achieve a final inoculum of ˜1×10^9 conidia/mL, as confirmed by hemocytometer counts and serial plating.\nMice were rendered immunosuppressed by intraperitoneal cyclophosphamide (250 mg/kg) and subcutaneous cortisone acetate (250 mg/kg) two days prior to inoculation (Day −2). Both cyclophosphamide (200 mg/kg intraperitoneal) and cortisone acetate (250 mg/kg subcutaneously) were re-administered on Day +3 following inoculation. Mice also received prophylactic antibiotic therapy of ceftazidime 50 mg/kg administered sub-cutaneously on Day −2 through Day +7.\nTo simulate pulmonary pathogenesis, mice were placed inside an acrylic chamber, and A. fumigatus conidia were introduced by aerosolizing the conidial suspension with a small particle nebulizer (Hudson Micro Mist, Hudson RCI, Temecula, Calif.) driven by compressed air. A standard exposure time of 1 hour was used to allow for complete aerosolization of the conidial suspension. Starting inocula were assessed by colony forming unit (CFU) enumeration from mice one hour post-inoculation.\nThe inhaled control group received 20 minute nebulizations of 100 mg/mL CAPTISOL® solutions BID beginning on Day −2 and continuing through Day +7. The intraperitoneal AmB group received 1 mg/kg Amphotericin B deoxycholate (Apothecon, Princeton, N.J.) by intraperitoneal injection (IP) once daily (QD) on Day +1 and continuing through Day +7 (FIG. 2).\nStatistical analyses were conducted as follows. Survival was plotted by Kaplan-Meier analysis, and differences in median survival and percent survival between prophylaxis groups were analyzed by the log-rank test and chi-square test, respectively, using Prism version 4 software (GraphPad, San Diego, Calif.). […] A p-value of ≦0.05 was considered statistically significant for all comparisons."}, "Aspergillus fumigatus [5]": {"tested_on": "Aspergillus fumigatus", "test": "Pulmonary fungal burden by real-time quantitative PCR (conidial equivalents) in infected mice", "assay_type": "in vivo", "settings": "Day + 8 per table footnote", "method": "as §1\nPulmonary fungal burden was also quantified by real-time quantitative polymerase chain reaction (qPCR) using previously described methods. Briefly, DNA was extracted from […] of lung homogenate with the use of a commercially available kit (DNeasy Tissue Kit, Qiagen, Valencia, Calif.) according to the manufacturer's instructions. DNA samples were analyzed in duplicate with the use of the ABI PRISM 7300 sequence-detection system (Applied Biosystems, Foster City, Calif.) with primers and dual-labeled fluorescent hybridization probes specific for the A. fumigatus 1,3-β-glucan synthase (FKS) gene (GenBank accession number U79728). The threshold cycle (Ct) of each sample was interpolated from a six-point standard curve generated by spiking naive mouse lungs with known amounts of conidia (102 to 107). An internal standard was amplified in separate reactions to correct for differences in DNA recovery. The resulting data was expressed as conidial equivalents (CE).\nas §2"}, "A. fumigatus": {"tested_on": "A. fumigatus", "test": "Lung histopathology, pulmonary lesion counts in A. fumigatus-infected mice", "assay_type": "in vivo, Aspergillus fumigatus", "method": "Histopathological changes in lung tissue were evaluated and compared for four mice in each of the inhaled voriconazole, inhaled control, and intraperitoneal AmB groups. The inhaled control was aerosolized CAPTISOL® at a concentration of 100 mg/mL over 20 minutes. On day 8 post inoculation, animals were euthanized using halothane and 10% volume/volume formaldehyde was instilled into the lungs via the trachea. Lungs were then harvested and placed into 10% volume/volume formaldehyde. Tissue was fixed in formaldehyde for an adequate period of time followed by processing and embedding into paraffin wax. Coronal sections of the entire lung were obtained at a thickness of 4-6 μm and mounted on slides. Sections were stained with hematoxylin and eosin and viewed by light microscopy with a Zeiss AxioVision Imager at 10× magnification. Two investigators were blinded and independently evaluated each lung section. The extent of lung damage caused by invasive hyphae was recorded and quantified by counting and normalizing the number of gross lesions.\nNormalization of the histopathology results was achieved by using the number of lung pieces (sections) on the slide as a denominator. The total number of lesions on the slide were counted and then divided by the number of pieces of tissue on that slide. This was done because the number of pieces of tissue per slide (again, all from the same cut of lung from the same animal) ranged from 4 to 9. For example, the normalized number of lesions would be 0.4 if 2 lesions were observed on a slide with 5 lung pieces. Similarly, the normalized value would be 0.14 if 1 lesion was observed on a slide with 7 lung pieces."}, "[6]": {"settings": "normalized lesions, listed as AmB"}},
  "note": "Where “and” joins values, the source holds several entries; their conditions need not be identical. Equal values may be shown once.",
  "data": [
    {"compound": "CC[C@@H]([C@H](C)O)n1ncn(-c2ccc(N3CCN(c4ccc(OC[C@@H]5CO[C@@](Cn6cncn6)(c6ccc(F)cc6F)C5)cc4)CC3)cc2)c1=O", "note": "[posaconazole]", "values": [
      {"measurement": "fungal burden as measured by quantitative real-time PCR", "setting": "[1]", "value": "significant reductions in fungal burden"}
    ]},
    {"compound": "OC[C@H]1O[C@@H]2O[C@H]3[C@H](O)[C@@H](O)[C@@H](O[C@H]4[C@H](O)[C@@H](O)[C@@H](O[C@H]5[C@H](O)[C@@H](O)[C@@H](O[C@H]6[C@H](O)[C@@H](O)[C@@H](O[C@H]7[C@H](O)[C@@H](O)[C@@H](O[C@H]1[C@H](O)[C@H]2O)O[C@@H]7CO)O[C@@H]6CO)O[C@@H]5CO)O[C@@H]4CO)O[C@@H]3CO", "note": "[α-CD]", "values": [
      {"measurement": "water solubility at saturation", "setting": "[2]", "value": "about 14.5 % w/w"}
    ]},
    {"compound": "Amphotericin B deoxycholate", "values": [
      {"measurement": "A - Day 8 Fungal Burden Determined by CFU, Mean", "setting": "Aspergillus fumigatus [3]; Day +8", "value": 4.37, "unit": "log10 CFU"},
      {"measurement": "A - Day 8 Fungal Burden Determined by CFU, Median", "setting": "Aspergillus fumigatus [3]; Day +8", "value": 4.33, "unit": "log10 CFU"},
      {"measurement": "A - Day 8 Fungal Burden Determined by CFU, Range", "setting": "Aspergillus fumigatus [3]; Day +8", "value": "(3.59-5.07) log10 CFU"},
      {"measurement": "B - Fungal Burden Determined by CFU for All Mice, Mean", "setting": "Aspergillus fumigatus [3]; all samples, day 8 and day 12", "value": 4.22, "unit": "log10 CFU"},
      {"measurement": "B - Fungal Burden Determined by CFU for All Mice, Median", "setting": "Aspergillus fumigatus [3]; all samples, day 8 and day 12", "value": 4.33, "unit": "log10 CFU"},
      {"measurement": "B - Fungal Burden Determined by CFU for All Mice, Range", "setting": "Aspergillus fumigatus [3]; all samples, day 8 and day 12", "value": "(3.24-5.07) log10 CFU"},
      {"measurement": "Percent Survival", "setting": "[4]; to Day +12", "value": 23.1, "unit": "%"},
      {"measurement": "Median Survival", "setting": "[4]", "value": 7, "unit": "days"},
      {"measurement": "C - Conidial Equivalents Determined by qPCR, Mean", "setting": "Aspergillus fumigatus [5]", "value": "4.89 log10 conidial equivalents"},
      {"measurement": "C - Conidial Equivalents Determined by qPCR, Median", "setting": "Aspergillus fumigatus [5]", "value": "4.95 log10 conidial equivalents"},
      {"measurement": "C - Conidial Equivalents Determined by qPCR, Range", "setting": "Aspergillus fumigatus [5]", "value": "(4.49-5.38) log10 conidial equivalents"},
      {"measurement": "D - Conidial Equivalents per Gram of Lung Tissue Determined by Qpcr, Mean", "setting": "Aspergillus fumigatus [5]; normalized for wet lung weight", "value": "5.50 log10 conidial equivalents per"},
      {"measurement": "D - Conidial Equivalents per Gram of Lung Tissue Determined by Qpcr, Median", "setting": "Aspergillus fumigatus [5]; normalized for wet lung weight", "value": "5.57 log10 conidial equivalents per"},
      {"measurement": "D - Conidial Equivalents per Gram of Lung Tissue Determined by Qpcr, Range", "setting": "Aspergillus fumigatus [5]; normalized for wet lung weight", "value": "(5.09-5.88) log10 conidial equivalents per"},
      {"measurement": "lung histopathology findings (in words)", "setting": "A. fumigatus; A. fumigatus-infected mice, aerosolized voriconazole, intraperitoneal amphotericin B", "value": "marked pulmonary disease, including necrosis and the presence of invasive hyphae, was observed"},
      {"measurement": "pulmonary lesions normalized for the number of lung tissue pieces per slide, Mean", "setting": "A. fumigatus; normalized lesions", "value": 0.6},
      {"measurement": "pulmonary lesions normalized for the number of lung tissue pieces per slide, 25th Percentile", "setting": "A. fumigatus; [6]", "value": "0.13 and 0.1"},
      {"measurement": "pulmonary lesions normalized for the number of lung tissue pieces per slide, 75th Percentile", "setting": "A. fumigatus; [6]", "value": "1.31 and 1.3"},
      {"measurement": "pulmonary lesions normalized for the number of lung tissue pieces per slide, Maximum", "setting": "A. fumigatus; [6]", "value": 1.6},
      {"measurement": "pulmonary lesions normalized for the number of lung tissue pieces per slide, Median", "setting": "A. fumigatus; [6]", "value": "0.28 and 0.3"},
      {"measurement": "pulmonary lesions normalized for the number of lung tissue pieces per slide, Minimum", "setting": "A. fumigatus; [6]", "value": "0.13 and 0.1"},
      {"measurement": "pulmonary lesions in all available histological samples, 25th Percentile", "setting": "A. fumigatus; number of lesions", "value": 1.0},
      {"measurement": "pulmonary lesions in all available histological samples, 75th Percentile", "setting": "A. fumigatus; number of lesions", "value": 6.8},
      {"measurement": "pulmonary lesions in all available histological samples, Maximum", "setting": "A. fumigatus; number of lesions", "value": 8.0},
      {"measurement": "pulmonary lesions in all available histological samples, Mean", "setting": "A. fumigatus; number of lesions", "value": 3.3},
      {"measurement": "pulmonary lesions in all available histological samples, Median", "setting": "A. fumigatus; number of lesions", "value": 2.0},
      {"measurement": "pulmonary lesions in all available histological samples, Minimum", "setting": "A. fumigatus; number of lesions", "value": 1.0}
    ]}
  ]
}
